Among the data in ChEMBL document CHEMBL5230087, “Inhibitors of SARS-CoV-2 Entry: Current and Future Opportunities” (J Med Chem, 2020) are IC50 and CC50 values, retold here.

In general, IC50 refers to the midpoint of a concentration-inhibition curve. A word on the CC50: it is the concentration that lowers cell viability or growth by half.

For one data set, the system named is HeLa. In words: Antiproliferative activity against human HeLa cells assessed as reduction in cell growth inhibition. Type of data set: functional, cell-based.
Data set [1] in a line: Cytotoxicity against African green monkey Vero cells by MTT assay. Format: toxicity, cell-based. The following applies: chlorocebus sabaeus. A general note: Tetrazolium assays rely on reduction of a dye to a coloured formazan, in cell work by metabolically active cells.
For another data set, the system named is Human coronavirus 229E. In words: Antiviral activity against HCoV-229E assessed as reduction of viral RNA level at 4 uM. Type of data set: functional, organism-based.

Some results are limits rather than exact numbers.

For `CN1CCN(CCOc2cc(OC3CCOCC3)c3c(Nc4c(Cl)ccc5c4OCO5)ncnc3c2)CC1` [SARACATINIB], the half-maximal inhibitory concentration (IC50) in the data set with HeLa was 2.4 µM; in the data set with Human coronavirus 229E, 5.1 µM. This compound came in with a 50% cytotoxic concentration (CC50) in data set [1] greater than 50 µM.
